According to ChEMBL document CHEMBL1201862, “PubChem BioAssay data set” (2004):
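These data come from cells grown in 96-well plates and exposed to compound for 48 hours at five concentrations. Abbreviation: GI50, concentration required for 50% inhibition of growth.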 Activity calls are given as the source filed them. Cut-off read from the data, not from the text of the source: active = GI50 up to about 1.1 µM and inactive = higher.

What was measured:
Test in all cases: NCI anticancer screen, dose series, 48 h
SK-OV-3 = tested on: SK-OV-3
HOP-18 = tested on: HOP-18
SF-295 = tested on: SF-295
HOP-92 = tested on: HOP-92
UO-31 = tested on: UO-31
K562 = tested on: K562
HCT-15 = tested on: HCT-15
SK-MEL-5 = tested on: SK-MEL-5
SF-539 = tested on: SF-539
SNB-19 = tested on: SNB-19
HOP-62 = tested on: HOP-62
KM12 = tested on: KM12
EKVX = tested on: EKVX
CCRF-CEM = tested on: CCRF-CEM
OVCAR-8 = tested on: OVCAR-8
NCI-H522 = tested on: NCI-H522
DLD-1 = tested on: DLD-1
M19-MEL = tested on: M19-MEL
HL-60 = tested on: HL-60
IGROV-1 = tested on: IGROV-1
SNB-75 = tested on: SNB-75
SF-268 = tested on: SF-268
SNB-78 = tested on: SNB-78
NCI-H23 = tested on: NCI-H23
HT-29 = tested on: HT-29
SK-MEL-2 = tested on: SK-MEL-2
OVCAR-4 = tested on: OVCAR-4
A549 = tested on: A549
COLO 205 = tested on: COLO 205
SK-MEL-28 = tested on: SK-MEL-28
NCI/ADR-RES = tested on: NCI/ADR-RES
NCI-H226 = tested on: NCI-H226
XF498 = tested on: XF498
MOLT-4 = tested on: MOLT-4
HCC 2998 = tested on: HCC 2998
A498 = tested on: A498
SN12C = tested on: SN12C
CAKI-1 = tested on: CAKI-1
OVCAR-3 = tested on: OVCAR-3
OVCAR-5 = tested on: OVCAR-5
UACC-257 = tested on: UACC-257
MCF7 = tested on: MCF7
HCT-116 = tested on: HCT-116
DMS-114 = tested on: DMS-114
SW-620 = tested on: SW-620
DMS-273 = tested on: DMS-273
UACC-62 = tested on: UACC-62
U-251 = tested on: U-251
KM-20L2 = tested on: KM-20L2
NCI-H460 = tested on: NCI-H460
RPMI-8226 = tested on: RPMI-8226
RXF 393 = tested on: RXF 393
Malme-3M = tested on: Malme-3M
LOX IMVI = tested on: LOX IMVI

With COc1cc(C2c3cc4c(cc3[C@@H](Nc3cccc([N+](=O)[O-])c3)C3COC(=O)[C@H]23)OCO4)cc(OC)c1O (some centres undefined) the GI50 (SK-OV-3) was 2510 nM (inactive), the GI50 (HOP-18) was 3370 nM (inactive) and the GI50 (SF-295) was 1360 nM (inactive). The GI50 (HOP-92) was 2920 nM (inactive), the GI50 (UO-31) was 2230 nM (inactive) and the GI50 (K562) was 2940 nM (inactive). For the same molecule, the GI50 (HCT-15) was 1390 nM, the GI50 (SK-MEL-5) was 1880 nM (inactive) and the GI50 (SF-539) was 1430 nM (inactive). The GI50 (SNB-19) was 2500 nM (inactive), the GI50 (HOP-62) was 796 nM (active) and the GI50 (KM12) was 3010 nM (inactive). The GI50 (EKVX) was 3560 nM (inactive), the GI50 (CCRF-CEM) was 400 nM (active) and the GI50 (OVCAR-8) was 2510 nM (inactive). For the same molecule, the GI50 (NCI-H522) was 2830 nM (inactive), the GI50 (DLD-1) was 1930 nM (inactive) and the GI50 (M19-MEL) was 4010 nM (inactive). The GI50 (HL-60) was 1050 nM (active), the GI50 (IGROV-1) was 6650 nM (inactive) and the GI50 (SNB-75) was 4100 nM (inactive). The GI50 (SF-268) was 2910 nM (inactive), the GI50 (SNB-78) was 5660 nM (inactive) and the GI50 (NCI-H23) was 1550 nM (inactive). For the same molecule, the GI50 (HT-29) was 2600 nM (inactive), the GI50 (SK-MEL-2) was 5400 nM (inactive) and the GI50 (OVCAR-4) was 20200 nM (inactive). For the same molecule, the GI50 (A549) was 200 nM (active), the GI50 (COLO 205) was 1350 nM (inactive) and the GI50 (SK-MEL-28) was 5360 nM (inactive). The GI50 (NCI/ADR-RES) was 8070 nM (inactive), the GI50 (NCI-H226) was 1850 nM (inactive) and the GI50 (XF498) was 3130 nM (inactive). The GI50 (MOLT-4) was 290 nM (active), the GI50 (HCC 2998) was 2330 nM (inactive) and the GI50 (A498) was 1460 nM (inactive). For the same molecule, the GI50 (SN12C) was 2750 nM (inactive), the GI50 (CAKI-1) was 1030 nM (active) and the GI50 (OVCAR-3) was 5690 nM (inactive). For the same molecule, the GI50 (OVCAR-5) was 2160 nM (inactive), the GI50 (UACC-257) was 4730 nM (inactive) and the GI50 (MCF7) was 944 nM (active). The GI50 (HCT-116) was 1990 nM (inactive), the GI50 (DMS-114) was 2700 nM (inactive) and the GI50 (SW-620) was 2280 nM (inactive). For the same molecule, the GI50 (DMS-273) was 615 nM (active), the GI50 (UACC-62) was 2520 nM (inactive) and the GI50 (U-251) was 1940 nM (inactive). For the same molecule, the GI50 (KM-20L2) was 3640 nM (inactive), the GI50 (NCI-H460) was 20 nM (active) and the GI50 (RPMI-8226) was 3050 nM (inactive). For the same molecule, the GI50 (RXF 393) was 2210 nM (inactive), the GI50 (Malme-3M) was 2620 nM (inactive) and the GI50 (LOX IMVI) was 1630 nM (inactive).
